Columns and labels:
human 5-HT1A receptor = molecular target: T1, human 5-HT1A receptor (Homo sapiens, UniProt P08908); assay: R-SAT assay 5-HT1A; type: cell-based; settings: Table 3, 5-HT1A; percent response of reference 8-OH-DPAT
T1 construct: expressed in transfected cells; host or cells: NIH/3T3

human 5-HT1B receptor = human 5-HT1B receptor (Homo sapiens, UniProt P28222); assay: R-SAT assay 5-HT1B; type: cell-based; settings: Table 3, 5-HT1B; for Eff (%): percent response of reference 5-CT
human M1 receptor = molecular target: T2, human M1 receptor (Homo sapiens, UniProt P11229); assay: R-SAT assay M1; type: cell-based; settings: Table 3, M1; percent response of reference Carbachol
T2 construct: expressed in transfected cells; host or cells: NIH/3T3

human M2 receptor = molecular target: T3, human M2 receptor (Homo sapiens, UniProt P08172); assay: R-SAT assay M2; type: cell-based; settings: Table 3, M2; percent response of reference Carbachol
T3 construct: expressed in transfected cells; host or cells: NIH/3T3
T3 sequence (P08172 1-466): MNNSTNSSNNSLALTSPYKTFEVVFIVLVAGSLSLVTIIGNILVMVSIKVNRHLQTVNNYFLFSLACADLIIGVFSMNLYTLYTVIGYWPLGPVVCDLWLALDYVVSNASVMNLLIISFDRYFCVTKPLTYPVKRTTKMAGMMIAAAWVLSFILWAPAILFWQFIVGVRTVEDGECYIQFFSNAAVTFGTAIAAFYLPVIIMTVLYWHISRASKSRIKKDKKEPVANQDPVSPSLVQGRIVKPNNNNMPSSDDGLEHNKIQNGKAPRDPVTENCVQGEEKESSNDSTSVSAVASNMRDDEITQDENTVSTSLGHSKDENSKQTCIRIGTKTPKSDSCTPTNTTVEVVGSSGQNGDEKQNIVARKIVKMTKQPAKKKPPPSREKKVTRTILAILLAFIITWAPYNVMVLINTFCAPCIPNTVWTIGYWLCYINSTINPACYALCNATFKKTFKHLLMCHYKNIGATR

human M3 receptor = molecular target: T4, human M3 receptor (Homo sapiens, UniProt P20309); assay: R-SAT assay M3; type: cell-based; settings: Table 3, M3; percent response of reference Carbachol
T4 construct: expressed in transfected cells; host or cells: NIH/3T3

human alpha1A receptor = molecular target: T5, human alpha1A receptor (Homo sapiens, UniProt P35348); assay: R-SAT assay α1A; type: cell-based; settings: Table 3, α1A; percent response of reference Phenylephrine
T5 construct: expressed in transfected cells; host or cells: NIH/3T3 cells, transient transfection, pSI vector
T5 sequence (P35348 1-466): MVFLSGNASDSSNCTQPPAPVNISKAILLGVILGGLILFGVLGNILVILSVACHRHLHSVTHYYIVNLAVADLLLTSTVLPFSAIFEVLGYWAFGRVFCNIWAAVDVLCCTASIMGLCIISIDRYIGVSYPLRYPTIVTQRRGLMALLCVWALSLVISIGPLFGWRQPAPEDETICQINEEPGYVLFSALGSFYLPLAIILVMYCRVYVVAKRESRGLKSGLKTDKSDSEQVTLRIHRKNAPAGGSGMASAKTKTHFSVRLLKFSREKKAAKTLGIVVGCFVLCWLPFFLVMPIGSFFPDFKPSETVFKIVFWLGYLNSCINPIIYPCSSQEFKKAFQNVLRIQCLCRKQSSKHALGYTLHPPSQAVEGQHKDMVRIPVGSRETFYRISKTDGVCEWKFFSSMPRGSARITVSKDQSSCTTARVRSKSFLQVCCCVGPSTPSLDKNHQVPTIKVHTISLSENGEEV

human alpha2B receptor = molecular target: T6, human alpha2B receptor (Homo sapiens, UniProt P18089); assay: R-SAT assay α2B; type: cell-based; settings: Table 3, α2B; percent response of reference UK 14,306
T6 construct: expressed in transfected cells; host or cells: NIH/3T3 cells, transient transfection, pSI vector

human alpha2C receptor = molecular target: T7, human alpha2C receptor (Homo sapiens, UniProt P18825); assay: R-SAT assay α2C; type: cell-based; settings: Table 3, α2C; percent response of reference UK 14,306
T7 construct: expressed in transfected cells; host or cells: NIH/3T3 cells, transient transfection, pSI vector
T7 sequence (P18825 1-462): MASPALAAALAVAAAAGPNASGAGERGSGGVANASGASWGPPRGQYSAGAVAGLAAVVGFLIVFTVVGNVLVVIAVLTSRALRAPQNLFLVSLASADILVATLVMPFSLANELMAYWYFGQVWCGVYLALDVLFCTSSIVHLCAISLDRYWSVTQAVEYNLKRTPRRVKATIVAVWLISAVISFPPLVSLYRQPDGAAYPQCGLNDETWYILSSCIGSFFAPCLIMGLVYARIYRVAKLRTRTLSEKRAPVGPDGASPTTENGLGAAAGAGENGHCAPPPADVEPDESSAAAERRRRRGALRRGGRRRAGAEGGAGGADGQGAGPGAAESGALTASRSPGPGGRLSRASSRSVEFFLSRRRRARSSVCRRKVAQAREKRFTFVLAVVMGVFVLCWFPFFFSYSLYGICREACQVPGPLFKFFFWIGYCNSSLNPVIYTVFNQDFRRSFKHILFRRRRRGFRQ

[1] = molecular target: human serotonin transporter (SERT) (Homo sapiens, UniProt P31645); settings: displacement of 3H-Imipramine
Description: Cells were not centrifuged following cell scraping, but were collected directly into the ice-cold nitrogen cavitation chamber.
Membranes were prepared as described above. […] Binding reactions were terminated by filtration through UniFilter-96GF/B filters (from Perkin-Elmer, presoaked with 0.1% polyethylenimine for 1 h) with a Brandel 96-well harvester. Filters were washed with ice-cold wash buffer (50 mM Tris, 120 mM NaCl, pH7.4; 500 ml/plate) and then allowed to air-dry for 30 min. 50 μl MacrosScint-20 scintillation cocktail was added to each well, the plates were sealed, and then counted on a Top-Count (Packard).

human 5-HT2A receptors = human 5-HT2A receptors (Homo sapiens, UniProt P28223); assay: BRET2 beta-arrestin-2 recruitment assay at 5-HT2A; type: cell-based; parameters: expressed in transfected cells; host or cells: HEK-293T; settings: mean ± SEM; for EC50: negative logarithm of EC50 in molar (M), HEK 293T cells, read-out: BRET2 pEC50 (converted); for BRET2 Eff %: percent response of reference ligand 5-HT
Description: (§1) BRET-2 signals were measured using the multiplate reader Mithras 940LB (Berthold Technologies, Bad Wildbad, Germany) and were calculated as the ratio between the Renilla luciferase emission and the GFP2 emission corrected by the background emissions of non-transfected cells.

D2 receptors = D2 receptors (Homo sapiens, UniProt P14416); assay: BRET2 beta-arrestin-2 recruitment assay at D2; type: cell-based; parameters: expressed in transfected cells; host or cells: HEK-293T; settings: percent response of reference ligand dopamine; mean ± SEM
Description: as §1
Each curve is representative of two to three independent experiments.

[2] = tested on: reserpine-pretreated mice; assay: Motor activity in monoamine-depleted (reserpine-pretreated) mice, video tracking; settings: for motor activity (distance moved, DM 1.5): reserpine 10 mg/kg ip 20 h prior, test drug ip just prior to recording, first 30 minutes, vs reserpine only group

Sequence of human 5-HT2A receptors (P28223 whole entry): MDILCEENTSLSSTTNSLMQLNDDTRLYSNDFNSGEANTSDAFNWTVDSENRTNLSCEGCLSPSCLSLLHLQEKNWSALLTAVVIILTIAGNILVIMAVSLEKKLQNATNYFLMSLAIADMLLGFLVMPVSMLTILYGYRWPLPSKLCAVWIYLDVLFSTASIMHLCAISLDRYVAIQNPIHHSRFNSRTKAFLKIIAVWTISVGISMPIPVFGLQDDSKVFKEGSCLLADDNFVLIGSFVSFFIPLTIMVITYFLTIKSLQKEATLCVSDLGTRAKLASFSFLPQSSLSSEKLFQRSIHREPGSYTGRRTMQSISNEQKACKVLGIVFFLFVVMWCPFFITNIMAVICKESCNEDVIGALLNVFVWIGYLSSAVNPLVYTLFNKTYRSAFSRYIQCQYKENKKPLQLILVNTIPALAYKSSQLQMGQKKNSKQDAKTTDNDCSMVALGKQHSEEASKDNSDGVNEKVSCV
Sequence of human 5-HT1B receptor (P28222 whole entry): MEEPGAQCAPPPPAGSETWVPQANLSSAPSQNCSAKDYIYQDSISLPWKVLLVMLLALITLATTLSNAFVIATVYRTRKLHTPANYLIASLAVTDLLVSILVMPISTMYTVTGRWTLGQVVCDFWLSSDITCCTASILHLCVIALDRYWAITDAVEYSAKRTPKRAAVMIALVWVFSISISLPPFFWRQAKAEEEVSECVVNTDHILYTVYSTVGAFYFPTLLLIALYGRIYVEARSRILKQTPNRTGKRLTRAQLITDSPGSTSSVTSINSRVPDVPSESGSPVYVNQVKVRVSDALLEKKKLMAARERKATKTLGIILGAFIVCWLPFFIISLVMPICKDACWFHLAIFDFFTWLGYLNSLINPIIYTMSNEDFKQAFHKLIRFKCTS
T4 sequence (P20309 whole entry): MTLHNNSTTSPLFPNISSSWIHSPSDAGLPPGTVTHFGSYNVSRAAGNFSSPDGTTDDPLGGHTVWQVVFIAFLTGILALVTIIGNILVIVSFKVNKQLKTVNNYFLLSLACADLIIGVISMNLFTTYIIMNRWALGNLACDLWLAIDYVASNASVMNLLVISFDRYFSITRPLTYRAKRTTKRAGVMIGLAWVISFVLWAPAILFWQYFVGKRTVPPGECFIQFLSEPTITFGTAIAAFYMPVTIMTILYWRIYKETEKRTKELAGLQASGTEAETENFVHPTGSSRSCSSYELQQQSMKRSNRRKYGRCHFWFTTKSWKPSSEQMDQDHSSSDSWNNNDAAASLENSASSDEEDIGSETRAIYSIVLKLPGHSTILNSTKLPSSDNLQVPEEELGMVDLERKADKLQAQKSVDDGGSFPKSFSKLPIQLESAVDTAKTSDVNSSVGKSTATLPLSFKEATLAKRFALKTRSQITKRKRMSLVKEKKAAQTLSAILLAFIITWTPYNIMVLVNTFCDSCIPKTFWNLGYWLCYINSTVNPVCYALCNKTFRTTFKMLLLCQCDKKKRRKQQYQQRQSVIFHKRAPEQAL
Sequence of D2 receptors (P14416 1-414 isoform P14416-2): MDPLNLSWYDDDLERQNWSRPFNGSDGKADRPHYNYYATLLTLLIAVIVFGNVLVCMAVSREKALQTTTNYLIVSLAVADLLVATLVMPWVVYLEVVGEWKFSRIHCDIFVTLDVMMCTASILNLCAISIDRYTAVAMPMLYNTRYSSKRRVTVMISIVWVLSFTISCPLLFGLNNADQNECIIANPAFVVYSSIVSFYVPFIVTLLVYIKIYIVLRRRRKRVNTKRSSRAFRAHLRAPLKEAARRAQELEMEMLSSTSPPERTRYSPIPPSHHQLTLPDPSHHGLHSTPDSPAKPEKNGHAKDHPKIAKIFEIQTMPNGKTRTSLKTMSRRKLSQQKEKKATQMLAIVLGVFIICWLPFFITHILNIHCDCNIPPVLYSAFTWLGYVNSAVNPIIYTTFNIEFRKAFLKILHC
T1 sequence (P08908 whole entry): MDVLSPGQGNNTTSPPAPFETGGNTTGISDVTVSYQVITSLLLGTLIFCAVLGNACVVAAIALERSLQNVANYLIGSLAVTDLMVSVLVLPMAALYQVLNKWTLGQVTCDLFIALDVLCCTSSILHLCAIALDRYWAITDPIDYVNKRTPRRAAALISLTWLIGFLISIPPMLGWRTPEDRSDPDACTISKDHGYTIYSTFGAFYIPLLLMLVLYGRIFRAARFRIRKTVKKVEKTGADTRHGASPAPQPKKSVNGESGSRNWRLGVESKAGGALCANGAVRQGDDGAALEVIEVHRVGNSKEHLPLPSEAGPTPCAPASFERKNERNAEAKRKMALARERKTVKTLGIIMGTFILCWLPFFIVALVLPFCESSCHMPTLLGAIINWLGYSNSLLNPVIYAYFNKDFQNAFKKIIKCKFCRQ
Sequence of human serotonin transporter (SERT) (P31645 whole entry): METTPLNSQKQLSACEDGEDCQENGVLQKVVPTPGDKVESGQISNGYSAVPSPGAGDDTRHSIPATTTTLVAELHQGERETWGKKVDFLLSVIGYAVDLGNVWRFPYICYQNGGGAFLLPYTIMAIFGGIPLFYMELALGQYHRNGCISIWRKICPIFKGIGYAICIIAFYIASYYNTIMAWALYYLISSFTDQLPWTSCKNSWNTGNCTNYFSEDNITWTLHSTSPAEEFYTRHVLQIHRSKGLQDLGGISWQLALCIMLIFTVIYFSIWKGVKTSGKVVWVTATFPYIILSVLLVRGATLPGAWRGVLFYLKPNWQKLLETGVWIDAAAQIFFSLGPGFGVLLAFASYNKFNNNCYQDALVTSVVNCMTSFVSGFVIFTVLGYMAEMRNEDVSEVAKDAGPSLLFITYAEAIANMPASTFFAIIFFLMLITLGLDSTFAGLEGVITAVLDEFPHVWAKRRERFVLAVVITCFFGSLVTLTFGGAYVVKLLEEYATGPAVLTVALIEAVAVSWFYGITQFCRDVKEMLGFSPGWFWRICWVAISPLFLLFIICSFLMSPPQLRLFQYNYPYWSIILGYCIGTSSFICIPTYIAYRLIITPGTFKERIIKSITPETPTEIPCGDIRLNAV
T2 sequence (P11229 whole entry): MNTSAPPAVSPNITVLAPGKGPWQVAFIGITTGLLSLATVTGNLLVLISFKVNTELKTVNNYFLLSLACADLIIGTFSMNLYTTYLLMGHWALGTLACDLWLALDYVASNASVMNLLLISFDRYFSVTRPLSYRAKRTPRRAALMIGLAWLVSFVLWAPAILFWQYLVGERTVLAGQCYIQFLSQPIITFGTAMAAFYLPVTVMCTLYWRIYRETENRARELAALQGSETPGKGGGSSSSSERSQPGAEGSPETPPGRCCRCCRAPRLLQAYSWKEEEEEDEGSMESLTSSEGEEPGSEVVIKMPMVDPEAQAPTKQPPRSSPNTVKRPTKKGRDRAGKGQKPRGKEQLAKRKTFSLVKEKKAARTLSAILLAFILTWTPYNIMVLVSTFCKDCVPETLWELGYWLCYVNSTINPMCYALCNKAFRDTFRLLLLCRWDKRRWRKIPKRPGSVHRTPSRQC
T6 sequence (P18089 whole entry): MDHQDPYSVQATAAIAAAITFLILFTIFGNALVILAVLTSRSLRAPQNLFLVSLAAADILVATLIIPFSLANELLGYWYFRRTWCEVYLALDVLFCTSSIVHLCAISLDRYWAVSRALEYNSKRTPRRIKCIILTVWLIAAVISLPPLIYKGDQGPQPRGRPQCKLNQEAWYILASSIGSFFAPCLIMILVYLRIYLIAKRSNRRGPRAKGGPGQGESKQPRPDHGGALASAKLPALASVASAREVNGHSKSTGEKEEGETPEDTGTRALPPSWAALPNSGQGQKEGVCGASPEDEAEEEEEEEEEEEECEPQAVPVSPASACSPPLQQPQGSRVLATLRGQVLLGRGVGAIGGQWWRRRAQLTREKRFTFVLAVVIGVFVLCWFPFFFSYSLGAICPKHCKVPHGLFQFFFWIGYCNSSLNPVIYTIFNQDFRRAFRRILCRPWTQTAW

Compound | Eff (%) (human 5-HT1A receptor) | EC50 (human 5-HT1B receptor; negative logarithm of EC50 in molar, read-out: pEC50 (converted)) [µM] | Eff (%) (human 5-HT1B receptor) | Eff (%) (human M1 receptor) | Eff (%) (human M2 receptor) | Eff (%) (human M3 receptor) | Eff (%) (human alpha1A receptor) | Eff (%) (human alpha2B receptor) | Eff (%) (human alpha2C receptor) | Inh % [1] [%] | EC50 (human 5-HT2A receptors) [M] | BRET2 Eff % (human 5-HT2A receptors; listed as (−) OSU-6162) | BRET2 Eff % (human 5-HT2A receptors; listed as (−)-OSU-6162) [%] | BRET2 Eff % (D2 receptors) [%] | motor activity (distance moved, DM 1.5) [2] | BRET2 Eff % (human 5-HT2A receptors; listed as (+) OSU-6162) [%] | BRET2 Eff % (human 5-HT2A receptors; listed as (+)-OSU-6162) [%] | effect on motor activity compared with the (−)-enantiomer ([2]; reserpine-pretreated mice, 250 μmol/kg ip, p<0.01)
CCCN1CCC[C@@H](c2cccc(S(C)(=O)=O)c2)C1 [(−)-OSU6162, (3S)-3-[3-(methylsulfonyl)phenyl]-1-propylpiperidine] | 14 | 2.51 | 75 | 5 | 9 | 0 | 15 | 13 | 6 | 26 | 1e-05 | approximately 60% | 63 ± 2 | 0 ± 0 | statistically significant increase in motor activity at 125 and 250 μmol/kg | – | – | –
CCCN1CCC[C@H](c2cccc(S(C)(=O)=O)c2)C1 [(+)-OSU6162, (3R)-3-[3-(methylsulfonyl)phenyl]-1-propylpiperidine] | 24 | – | 20 | 11 | 22 | 6 | 22 | 8 | 13 | 38 | 1.58e-05 | – | – | 0 ± 0 | statistically significant increase in motor activity at 125, 250 and 500 μmol/kg, with a peak response at 250 μmol/kg | ~80 | 84 ± 2 | much larger effect on motor activity
